According to US10633375B2, “Oxopicolinamide derivative, preparation method therefor and pharmaceutical use thereof” (Jiangsu Hengrui Medicine Co., Ltd., priority 2016, dated 2020):
Values joined by “and” are separate entries in the source; they are usually repeats but may differ in a detail not shown here. Equal values may be shown once.

Columns and labels:
[1] = Pharmacokinetics assay in rats after intragastrical administration; format: in vivo, Sprague-Dawley (SD) rats; conditions: both sexes, Sprague-Dawley, rat, plasma, po, SD rats, intragastric, 2 mg/kg; for Vd/F: read-out: Apparent Distribution Volume Vz/F; for AUC: read-out: Area Under Curve AUC; for CL/F: read-out: Clearance CLz/F; for half-life: read-out: Half-Life T½ (converted); for MRT: read-out: Mean Residence Time MRT; for Cmax: read-out: Plasma Concentration Cmax
Text: Test Example 3. Pharmacokinetics Assay of the Compounds of the Present Invention
Rats were used as test animals. […] The pharmacokinetic behavior of the compounds of the present invention was studied and evaluated in rats.
56 healthy adult Sprague-Dawley (SD) rats, half male and half female, were purchased from SINO-BRITSH SIPPR/BK LAB. ANIMAL LTD., CO, with License No.: SCXK (Shanghai) 2008-0016.
2.3 Preparation of the Test Compounds
A certain amount of the test compound was weighed, and added with 5% by volume of DMSO, 5% by volume of Tween 80 and 90% normal saline to prepare a 0.2 mg/mL colorless, clear and transparent solution.
After an overnight fast, SD rats were intragastrically administered at a dose of 2.0 mg/kg and an administration volume of 10.0 mL/kg.
Blood (0.2 mL) was taken from the orbital sinus before administration and at 0.5, 1.0, 2.0, 4.0, 6.0, 8.0, 11.0 and 24.0 hours after administration. The samples were stored in heparin anticoagulation tubes, and centrifuged for 10 minutes at 3500 rpm at 4° C. to separate the blood plasma. The plasma samples were stored at −20° C. The rats were fed 2 hours after administration.
(§1) The content of the test compound in the plasma of rats after intragastric administration of different concentrations of the drug was determined: 25 μL of rat plasma at each time after administration was taken and added with 30 μL (100 ng/mL) of the internal standard solution of camptothecin and 200 μL of acetonitrile, shaken vertically for 5 minutes, and centrifuged for 10 minutes (4000 rpm). 3.0 μL of the supernatant was taken from the plasma samples for LC/MS/MS analysis.
4. Results of Pharmacokinetic Parameters
Pharmacokinetic parameters of the compounds of the present invention in rats are shown below.

human blood = test: In vitro anticoagulant effect on human blood (APTT, CT2); conditions: Table 2; concentration corresponding to 2 times the APTT of the blank control, human plasma
Summary of the method: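 Citrated human plasma (3.8% sodium citrate, 1:9) spiked with compound serially diluted in 100% DMSO (0.3–3000 μM dilution series; DMSO blank) and APTT measured on a coagulation analyser. CT2 is the compound concentration doubling blank APTT, from curve fitting.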

[2] = Pharmacokinetics assay in cynomolgus monkeys; format: in vivo; conditions: male, cynomolgus monkey, plasma, po, intragastric, 15 mg/kg; for Vd/F: read-out: Apparent Distribution Volume Vz/F; for AUC: read-out: Area Under Curve AUC; for CL/F: read-out: Clearance CLz/F; for half-life: read-out: Half-Life T½ (converted); for MRT: read-out: Mean Residence Time MRT; for Cmax: read-out: Plasma Concentration Cmax
Text: (§2) Test Example 4: Determination of APTT Value and Pharmacokinetic Assay in Cynomolgus Monkey
Cynomolgus monkeys were used as test animals. […] The pharmacokinetic behavior of the compounds of the present invention was studied and evaluated in the cynomolgus monkeys.
(§3) Six male cynomolgus monkeys (101, 102, 103, 201, 202 and 203) were purchased from Guangxi Xiongsen Primate Experimental Animal Breeding Development Co., Ltd.
(§4) Compounds of Example 5 and Example 108.
(§5) 4. Preparation of the Test Compounds
(§6) A certain amount of the test compound was weighed, and added with 2% by volume of DMSO, 78% by volume of PEG400 and 20% CMC-Na (0.5%) to prepare a 3.0 mg/mL colorless, clear and transparent solution.
(§7) After an overnight fast, cynomolgus monkeys were intragastrically administered at a dose of 15.0 mg/kg and an administration volume of 5.0 mL/kg.
7. Test Protocol of Pharmacokinetics Assay in Cynomolgus Monkeys
1.0 mL of blood was taken from the forelimb vein before administration and at 0.25, 0.5, 1, 2, 4, 6, 8, 12 and 24 hours after administration. The samples were stored in heparin anticoagulation tubes, and centrifuged for 10 minutes at 3500 rpm to separate the blood plasma. The plasma samples were stored at −80° C. The […] were fed 2 hours after administration.
as §1, with “of cynomolgus monkeys” for “of rats”, “of cynomolgus monkey” for “of rat”, “and 225” for “and 200”, “rpm). 1.0” for “rpm). 3.0”
7.2. Results of Pharmacokinetic Parameters in Cynomolgus Monkeys
Pharmacokinetic parameters of the compounds of the present invention in cynomolgus monkeys are shown below.

[3] = Determination of APTT value in cynomolgus monkeys; format: in vivo; conditions: cynomolgus monkey, individual animals; for APTT (sec) 1 hour / APTT (sec) 2 hours / APTT (sec) 4 hours / APTT (sec) 8 hours / APTT (sec) 12 hours: 15.0 mg/kg intragastric; for APTT (sec) 1 hour: 1 hour after administration; for APTT (sec) 2 hours: 2 hours after administration; for APTT (sec) 4 hours: 4 hours after administration; for APTT (sec) 8 hours: 8 hours after administration; for APTT (sec) 12 hours: 12 hours after administration; for APTT (sec) Before Administration: baseline before 15.0 mg/kg intragastric dose
Experimental: as §2, §3, §4, §5, §6, §7
6. Test Protocol for Determination of APTT Value in Cynomolgus Monkeys
6.1 Experimental Materials
Reagents: APTT reagent (Activated partial thromboplastin time assay kit, SIEMENS, Art. No. B4218-1), PEG-400 and CMC-Na;
Instrument: Coagulation instrument (SYSMEX, CA-500).
6.2 Collection and Processing of APTT Plasma Sample
Blood was taken before administration and at 1 hour, 2 hours, 4 hours, 8 hours and 12 hours after administration. About 1.8 mL of blood was taken through femoral vein puncture in each animal for each time. Anticoagulated sodium citrate was added. After the blood sample was collected, it was placed in a pre-labeled centrifuge tube, and the plasma was separated by centrifugation (centrifugation conditions: 3500 rpm, 10 minutes, 2-8° C.). The plasma was stored in a −80° C. refrigerator for APTT assay.
6.3 APTT Assay Results in Cynomolgus Monkeys

[4] = target: Coagulation Factor XIa protease (Homo sapiens (Human), UniProt P03951); test: Inhibition of Factor XIa detected by absorption photometry; format: biochemical; conditions: absorbance at 405 nm, 10 minutes at 37° C.
Sequence of Coagulation Factor XIa protease (P03951 388-625): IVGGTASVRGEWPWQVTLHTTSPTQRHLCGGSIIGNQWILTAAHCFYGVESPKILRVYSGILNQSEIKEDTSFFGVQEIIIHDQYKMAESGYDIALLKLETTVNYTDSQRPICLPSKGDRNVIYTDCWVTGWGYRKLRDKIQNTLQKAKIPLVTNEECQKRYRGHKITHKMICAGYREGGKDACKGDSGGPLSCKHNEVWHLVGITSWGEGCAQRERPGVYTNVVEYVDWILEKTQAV
Sequence of Coagulation Factor XIa protease (P03951 19-387 partner): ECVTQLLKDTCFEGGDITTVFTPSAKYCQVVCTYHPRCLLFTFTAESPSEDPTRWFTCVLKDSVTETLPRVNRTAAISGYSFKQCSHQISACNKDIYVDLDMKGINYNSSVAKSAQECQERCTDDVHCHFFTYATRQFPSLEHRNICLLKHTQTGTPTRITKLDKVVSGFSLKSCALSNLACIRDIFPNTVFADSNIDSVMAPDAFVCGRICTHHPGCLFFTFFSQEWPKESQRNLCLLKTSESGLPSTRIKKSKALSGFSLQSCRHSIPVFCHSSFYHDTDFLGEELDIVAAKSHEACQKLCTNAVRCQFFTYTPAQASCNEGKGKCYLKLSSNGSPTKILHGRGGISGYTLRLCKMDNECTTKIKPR
Summary of the method: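 Read-out was absorbance at 405 nm after 10 min incubation at 37° C. Compound dilutions in 100% DMSO (200 to 0.002 μM) were combined with FXIa (2.5 μg/ml solution), then FXIa-specific chromogenic substrate (2 mM solution) was added; both are stock concentrations, not final.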

Compound | Vd/F [1] [L/kg] | AUC [1] [ng·h/mL] | CL/F [1] [mL/min/kg] | half-life [1] [h] | MRT [1] [h] | Cmax [1] [ng/mL] | CT2, concentration doubling APTT (human blood) [µM] | Vd/F [2] [L/kg] | AUC [2] [ng·h/mL] | CL/F [2] [mL/min/kg] | half-life [2] [h] | MRT [2] [h] | Cmax [2] [ng/mL] | APTT (sec) 1 hour [3] | APTT (sec) 2 hours [3] | APTT (sec) 4 hours [3] | APTT (sec) 8 hours [3] | APTT (sec) 12 hours [3] | APTT (sec) Before Administration [3] | IC50 [4] [nM]
COc1cn([C@@H](Cc2ccccc2)C(=O)Nc2ccc(C(=O)O)cc2)c(=O)cc1-c1cc(Cl)ccc1C(C)=O [Example 5, (S)-4-(2-(4-(2-acetyl-5-chlorophenyl)-5-methoxy-2-oxopyridin-1(2H)-yl)-3-phenylpropanamido)benzoic acid] | 4.98 ± 0.291 | 518 ± 63 | 65.1 ± 8.1 | 0.89 ± 0.08 | 6.64 ± 1.77 | 244 ± 77 | 2.0 | 30.4 ± 12.6 | 4950 ± 2880 | 62 ± 32 | 5.86 ± 1.1 | 9.63 ± 0.78 | 688 ± 560 | 36.8 s and 25.9 s | 33.3 s and 31.4 s and 27.2 s | 28.3 s and 26.1 s and 22.2 s | 27.3 s and 32.5 s and 24.8 s | 28.6 s and 23.8 s and 23.9 s | 17.2 s and 17.3 s and 19.1 s | 
CCC(=O)c1ccc(Cl)cc1-c1cc(=O)n([C@@H](CCOC(C)(C)C)C(=O)Nc2ccc(C(=O)O)cc2)cc1OC [Example 108, (S)-4-(4-(tert-butoxy)-2-(4-(5-chloro-2-propionylphenyl)-5-methoxy-2-oxopyridin-1(2H)-yl)butanamido)benzoic acid] | 44.4 ± 3.45 | 452 ± 44 | 74.3 ± 6.9 | 6.98 ± 1.22 | 7.33 ± 0.48 | 105 ± 23 | 1.4 | 59.1 ± 26.2 | 2700 ± 1340 | 120 ± 83 | 6.32 ± 1.47 | 8.81 ± 3.65 | 295 ± 102 | 26.3 s and 31.2 s and 31.9 s | 27.5 s and 27.1 s and 28.5 s | 28.7 s and 24.1 s and 28.6 s | 26.9 s and 20.3 s and 26.3 s | 27.3 s and 19 s and 21.5 s | 17.5 s and 18.5 s and 17.6 s | 
COc1cn([C@H](CC2CCC2)C(=O)Nc2ccc(C(=O)O)cc2)c(=O)cc1-c1c(C(C)=O)ccc(Cl)c1F [Example 160, (R)-4-(2-(4-(6-acetyl-3-chloro-2-fluorophenyl)-5-methoxy-2-oxopyridin-1(2H)-yl)-3-cyclobutylpropanamido)benzoic acid] | 34.6 ± 4.13 | 365 ± 52 | 92.5 ± 12.3 | 4.34 ± 0.35 | 8.3 ± 1.33 | 53.9 ± 20.3 | 3.8 |  |  |  |  |  |  |  |  |  |  |  |  | 68
